Reference: patent US8796327B2, “Method for inhibiting production of cytokines of T helper cell type II and/or inhibiting production of chemokines using brazilin” (China Medical University, priority 2010, dated 2014)

How the values were obtained:
[1] = test system: invasion of inflammatory cells into the lungs; assay: Histopathological examination of H&E stained lung tissue slices, mice with asthma (OVA); type: in vivo; settings: OVA-sensitized BALB/c mice, result in words
Description: In Example 2, mice with asthma were used to conduct in vivo experiments, and ovalbumin (OVA) was used as an allergen.
The mice were sensitized (or challenged) according to the steps shown in FIG. 9 (see Lee et al., Lentiviral-mediated GATA-3 RNAi decreases allergic airway inflammation and hyperresponsiveness. Molecular Therapy, 2008; 16:60-65, which is incorporated herein in its entirety by reference). First, 50 μg OVA (using 2 mg alumina (Alum, Alumlmuject, Pierce Chemical, Rockford, Ill., USA) as an adjuvant) was injected into six to eight-week-old BALB/c female mice (from National Laboratory Animal Center, Taiwan) by intraperitoneal injection (i.p.). At 0th, 14th, and 28th day, the mice were injected with OVA at the same dosage. Before the administration of OVA at the forty-first and the forty-second days, different dosages of brazilin (high dose: 430 μg/mice; low dose: 43 μg/mice) were administrated to the mice by intraperitoneal injection (i.p.) or intratracheal instillation (i.t.). During the fortieth to the forty-second days, 100 μg OVA was dissolved in 40 μl PBS, and was administrated to the mice by intranasal instillation (i.n.) (once everyday, for three days). At the forty-third day, airway hyperresponsiveness of the mice was observed. […]

IL-4 = assay: ELISA of IL-4 in supernatant of EL-4 T lymphoma cells; type: cell-based, mouse; settings: EL-4 cells
Description: (§1) First, in an incubator containing 5 vol % of CO2 at 37° C., EL-4 mouse T lymphoma cells (commercially available from ATCC, Manassas, Va., America) were cultured in the DMEM culture medium (containing 10 wt % of thermally deactivated FBS), and were sub-cultured at a ratio of 1:3.
(§2) Then, at a density of 5×10^5 counts/ml, the T lymphoma cells were bred in a six-well culture dish, and at the 0th minute, brazilin of different concentrations (0.3, 1, 3, 10, or 30 micromole (μM)) was added into the cell culture solution at an amount of 1 μl/ml-cell culture solution. Then, the cells were put into the incubator to be cultured therein. 30 minutes later, at an amount of 1 μl/ml-cell culture solution, 5 μg/ml PMA and cAMP at a 250 mmol concentration were added to the cell culture solution to stimulate the expression of IL-4 and IL-5 of the T lymphoma cells. During the process of cell culture, the trypan blue exclusion assay was employed to observe effect of the brazilin on the cell viability, results of which are shown in Table 1 and FIG. 1.
(§3) At 4° C., the T lymphoma cells obtained from Experiment A were centrifugally rotated at a rotational speed of 1000 rpm and at 4° C. for 5 minutes, and the supernatant was collected and analyzed for cytokines.
(§4) An enzyme-linked immunosorbent assay (ELISA) kit (commercially available from R&D Systems, Inc., America) was used to analyze the expression of IFN-γ, IL-4, IL-5, and eotaxin cytokines in the aforesaid supernatant, results of which are shown in Table 2, Table 3, FIG. 2, and FIG. 3.
(§5) In Experiment B and the following Experiment C, all experimental data are presented in form of “mean±standard deviation”, and statistical discrepancy was analyzed by means of the One-way ANOVA and Newman-keuls post-hoc tests, in which it is considered that there is statistical discrepancy if p<0.05.

GATA-3 mRNA = assay: Real-time PCR of GATA-3 mRNA in EL-4 T lymphoma cells; type: cell-based, mouse; settings: for Expression level of GATA-3 mRNA: PMA + cAMP stimulated EL-4 cells, corrected to HPRT
Description: as §2
(§6) Expression of mRNA of IL-4, IL-5, GATA-3, c-maf, and T-bet were analyzed in a quantitative way through real-time polymerase chain reaction (PCR) by extracting RNA in the cells obtained in Experiment A (using an RNA purifying kit), converting the RNA into cDNA through reverse transcription, and using an ABI PRISM 7700 sequence detector (Applied Biosystems, Foster City, Calif., America) to analyze the gene expression of mRNA. The PCR was carried out under the following conditions: 50° C., 2 minutes; 95° C., 10 minutes; 60° C., 1 minute; then repeating this cycle forty times. A threshold cycle (or referred to as Ct) was used to represent the expression level of each gene, and an expression level of hypoxanthine-guanine phosphoribosy transferase (HPRT) genes of the endogenous control group was used for correction of the expression level of mRNA.

IL-5 = assay: ELISA of IL-5 in supernatant of EL-4 T lymphoma cells; type: cell-based, mouse; settings: EL-4 cells
Description: as §1
Then, at a density of 5×10^5 counts/ml, the T lymphoma cells were bred in a six-well culture dish, and at the 0th minute, brazilin of different concentrations (0.3, 1, 3, 10, or 30 micromole (μM)) was added into the cell culture solution at an amount of 1 μl/ml-cell culture solution. Then, the cells were put into the incubator to be cultured therein. […] During the process of cell culture, the trypan blue exclusion assay was employed to observe effect of the brazilin on the cell viability, results of which are shown in Table 1 and FIG. 1.
as §3, §4, §5

IL-4 mRNA = assay: Real-time PCR of IL-4 mRNA in EL-4 T lymphoma cells; type: cell-based, mouse; settings: for Expression level of IL-4 mRNA: PMA + cAMP stimulated EL-4 cells, corrected to HPRT
Description: as §2, §6

## Oc1ccc2c(c1)OC[C@]1(O)Cc3cc(O)c(O)cc3[C@H]21 [brazilin]
[1]
  invasion of inflammatory cells (H&E lung slices, FIG. 11): reduced
IL-4; result in words
  expression of protein of IL-4 cytokine: inhibited
IL-4; brazilin 0.3 μM + PMA + cAMP
  Concentration of IL-4 (pico-gram/ml): 23.93 ± 2.214 pico-gram/ml
IL-4; brazilin 1 μM + PMA + cAMP
  Concentration of IL-4 (pico-gram/ml): 22.49 ± 1.969 pico-gram/ml
IL-4; brazilin 3 μM + PMA + cAMP
  Concentration of IL-4 (pico-gram/ml): 23.45 ± 2.693 pico-gram/ml
IL-4; brazilin 10 μM + PMA + cAMP
  Concentration of IL-4 (pico-gram/ml): 23.13 ± 2.297 pico-gram/ml
IL-4; brazilin 30 μM + PMA + cAMP
  Concentration of IL-4 (pico-gram/ml): 18.71 ± 1.206 pico-gram/ml
GATA-3 mRNA; EL-4 cells, result in words
  expression of mRNA of transcription factor GATA-3: inhibited
GATA-3 mRNA; brazilin 0.3 μM
  Expression level of GATA-3 mRNA: 3.960 ± 0.1234
GATA-3 mRNA; brazilin 1 μM
  Expression level of GATA-3 mRNA: 3.036 ± 0.5622
GATA-3 mRNA; brazilin 3 μM
  Expression level of GATA-3 mRNA: 2.663 ± 0.6056
GATA-3 mRNA; brazilin 10 μM
  Expression level of GATA-3 mRNA: 1.812 ± 0.1538
GATA-3 mRNA; brazilin 30 μM
  Expression level of GATA-3 mRNA: 1.434 ± 0.2530
IL-5; result in words
  expression of protein of IL-5 cytokine: inhibited
IL-5; brazilin 0.3 μM + PMA + cAMP
  Concentration of IL-5 (pico-gram/ml): 2480 ± 515.9 pico-gram/ml
IL-5; brazilin 0.3 μM, no PMA + cAMP
  Concentration of IL-5 (pico-gram/ml): 5.925 ± 3.462 pico-gram/ml
IL-5; brazilin 1 μM + PMA + cAMP
  Concentration of IL-5 (pico-gram/ml): 2580 ± 402.8 pico-gram/ml
IL-5; brazilin 1 μM, no PMA + cAMP
  Concentration of IL-5 (pico-gram/ml): 0.2422 ± 0.2422 pico-gram/ml
IL-5; brazilin 3 μM + PMA + cAMP
  Concentration of IL-5 (pico-gram/ml): 2345 ± 392.6 pico-gram/ml
IL-5; brazilin 3 μM, no PMA + cAMP
  Concentration of IL-5 (pico-gram/ml): 0.2422 ± 0.2422 pico-gram/ml
IL-5; brazilin 10 μM + PMA + cAMP
  Concentration of IL-5 (pico-gram/ml): 1809 ± 337.9 pico-gram/ml
IL-5; brazilin 10 μM, no PMA + cAMP
  Concentration of IL-5 (pico-gram/ml): 1.474 ± 0.9891 pico-gram/ml
IL-5; brazilin 30 μM + PMA + cAMP
  Concentration of IL-5 (pico-gram/ml): 1292 ± 531.6 pico-gram/ml
IL-5; brazilin 30 μM, no PMA + cAMP
  Concentration of IL-5 (pico-gram/ml): 0.0 ± 0.0 pico-gram/ml
IL-4 mRNA; EL-4 cells, result in words
  expression of mRNA of IL-4: inhibited
IL-4 mRNA; brazilin 0.3 μM
  Expression level of IL-4 mRNA: 2.228 ± 0.4786
IL-4 mRNA; brazilin 1 μM
  Expression level of IL-4 mRNA: 2.028 ± 0.1794
IL-4 mRNA; brazilin 3 μM
  Expression level of IL-4 mRNA: 2.136 ± 0.2671
IL-4 mRNA; brazilin 10 μM
  Expression level of IL-4 mRNA: 1.835 ± 0.2712
IL-4 mRNA; brazilin 30 μM
  Expression level of IL-4 mRNA: 1.478 ± 0.1441
